Drawing on patent US11530180B2, “Alpha-5 beta-1 inhibitors” (The Regents of the University of California, priority 2019, dated 2022), this text covers IC50 for 27 molecules.

Each structure is given as a SMILES string. pIC50: −log10 of the molar value.

As usually defined, the pIC50 is the IC50 on a negative log10 scale, so that one unit is a factor of ten. Low readings indicate a high IC50, high ones a low IC50.

In one assay the target is alpha-5-beta-1 integrin (Homo sapiens (Human), UniProt P05556+P08648). Nature of the assay: alpha-5-beta-1 integrin cell adhesion assay (SW480 cells on human plasma fibronectin). The class given is cell-based. The settings on record: alpha-5-beta-1 integrin cell adhesion assay following Example 1; Table 2. The protocol: Cell Adhesion Assay. Evaluation of cell attachment to extracellular matrix proteins was performed as previously described by Yokosaki et al, J. Biol. Chem., 271: (39): 24144-24150 (1996). Briefly, wells of non-tissue culture-treated polystyrene 96-well flat-bottom microtiter plates (Linbro/Titertek, Flow Laboratories, McLean, Va.) were coated by incubation with 100 μl of each substrate in PBS at 37° C. for 1 hour. 96-well flat-bottomed tissue culture plates were coated with human plasma fibronectin for 1 hour at 37° C. After incubation, wells were washed with PBS, then blocked with 1% bovine serum albumin (BSA) for one hour. Control wells were filled with 1% BSA. SW480 cells were detached using 10 mM EDTA and resuspended in serum-free DMEM. For blocking experiments, cells were incubated with 10 μg/ml of the antibody for 15 minutes at 4° C. before plating. The plates were centrifuged at 10 g for 5 minutes before incubation for 1 hour at 37° C. in humidified 5% CO2. Nonadherent cells were removed by centrifugation (top side down) at 10 g for 5 minutes. Attached cells were stained with 0.5% crystal violet, and the wells were washed with PBS. The relative number of cells in each well was evaluated after solubilization in 40 μl of 2% Triton X-100 by measuring absorbance at 595 nm in a microplate reader. All determinations were carried out in triplicate.
alpha-5-beta-1 integrin, sequence (P08648 42-894): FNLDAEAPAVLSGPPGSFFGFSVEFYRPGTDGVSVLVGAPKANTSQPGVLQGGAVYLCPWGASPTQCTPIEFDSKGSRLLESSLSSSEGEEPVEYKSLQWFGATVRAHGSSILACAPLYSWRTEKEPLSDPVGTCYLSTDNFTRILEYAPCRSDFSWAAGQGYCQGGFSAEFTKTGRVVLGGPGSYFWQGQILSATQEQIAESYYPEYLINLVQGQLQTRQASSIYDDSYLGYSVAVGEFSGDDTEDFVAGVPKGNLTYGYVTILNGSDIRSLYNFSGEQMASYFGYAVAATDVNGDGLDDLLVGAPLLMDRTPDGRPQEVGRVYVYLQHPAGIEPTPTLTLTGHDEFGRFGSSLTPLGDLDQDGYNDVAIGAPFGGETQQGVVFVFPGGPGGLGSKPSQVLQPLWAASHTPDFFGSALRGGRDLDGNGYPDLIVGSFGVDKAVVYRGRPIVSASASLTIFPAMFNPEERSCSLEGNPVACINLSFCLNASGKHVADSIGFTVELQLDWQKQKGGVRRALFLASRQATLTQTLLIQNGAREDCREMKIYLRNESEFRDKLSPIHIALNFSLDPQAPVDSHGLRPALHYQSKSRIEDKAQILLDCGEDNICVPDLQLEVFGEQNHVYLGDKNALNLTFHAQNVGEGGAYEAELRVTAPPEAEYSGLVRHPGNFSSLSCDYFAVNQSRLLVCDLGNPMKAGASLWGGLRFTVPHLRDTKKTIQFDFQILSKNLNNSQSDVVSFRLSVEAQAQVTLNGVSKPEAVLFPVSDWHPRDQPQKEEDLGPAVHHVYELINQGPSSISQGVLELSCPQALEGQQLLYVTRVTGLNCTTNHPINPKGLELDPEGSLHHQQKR
alpha-5-beta-1 integrin, sequence (P08648 895-1049 partner): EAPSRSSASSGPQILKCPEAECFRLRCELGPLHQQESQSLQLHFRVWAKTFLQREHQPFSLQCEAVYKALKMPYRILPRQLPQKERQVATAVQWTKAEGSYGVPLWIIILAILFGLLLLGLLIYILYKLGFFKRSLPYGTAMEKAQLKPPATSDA
alpha-5-beta-1 integrin, sequence (P05556 21-798): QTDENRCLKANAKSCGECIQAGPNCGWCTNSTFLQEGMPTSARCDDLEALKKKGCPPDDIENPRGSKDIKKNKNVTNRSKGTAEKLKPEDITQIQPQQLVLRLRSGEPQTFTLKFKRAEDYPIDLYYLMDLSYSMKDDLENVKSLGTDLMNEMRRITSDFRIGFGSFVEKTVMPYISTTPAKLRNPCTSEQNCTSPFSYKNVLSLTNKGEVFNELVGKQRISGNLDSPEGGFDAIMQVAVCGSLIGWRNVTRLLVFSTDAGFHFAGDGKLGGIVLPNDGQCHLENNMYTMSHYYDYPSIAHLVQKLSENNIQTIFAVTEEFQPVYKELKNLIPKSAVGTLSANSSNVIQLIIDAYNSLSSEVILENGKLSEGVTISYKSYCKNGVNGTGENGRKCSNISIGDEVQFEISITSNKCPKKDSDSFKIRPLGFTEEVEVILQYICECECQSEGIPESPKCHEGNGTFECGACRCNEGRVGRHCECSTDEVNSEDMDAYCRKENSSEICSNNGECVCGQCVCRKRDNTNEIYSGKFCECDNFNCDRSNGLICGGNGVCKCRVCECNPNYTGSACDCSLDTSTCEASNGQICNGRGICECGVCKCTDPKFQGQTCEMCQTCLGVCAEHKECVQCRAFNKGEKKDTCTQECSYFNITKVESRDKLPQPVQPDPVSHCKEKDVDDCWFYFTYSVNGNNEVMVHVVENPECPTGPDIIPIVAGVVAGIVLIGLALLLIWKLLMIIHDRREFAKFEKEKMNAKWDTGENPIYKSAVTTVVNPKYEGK
Table 2 provides the IC50 (nM) results of an alpha-5-beta-1 integrin cell adhesion assay for the compounds shown. The assay was performed following the procedures set forth in Example 1 and as described by Yokosaki et al, J. Biol. Chem., 271: (39): 24144-24150 (1996).
For `CS(=O)(=O)c1ccc(-c2cc(Cl)c(C(=O)N[C@@H](CNC(=O)CNC(=O)c3cccc(N=C(N)N)c3)C(=O)O)c(Cl)c2)cc1` [SU15210-0110-01, (S)-2-(3,5-dichloro-4′-(methylsulfonyl)biphenyl-4-ylcarboxamido)-3-(2-(3 guanidinobenzamido)acetamido)propanoic acid], the pIC50 was > 7.00.

As to `O=C(CNC(=O)c1cccc(NC2=NCCCN2)c1)NC[C@H](NC(=O)c1c(Cl)cc(-c2ccccc2)cc1Cl)C(=O)O` [SU15210-0147-01, (S)-2-(3,5-dichlorobiphenyl-4-ylcarboxamido)-3-(2-(3-(1,4,5,6-tetrahydropyrimidin-2-ylamino)benzamido)acetamido)propanoic acid], the pIC50 was > 7.00.

With `O=C(CCc1ccc2c(n1)NCCC2)NCC(=O)NC[C@H](NC(=O)c1c(Cl)cc(-c2ccccc2)cc1Cl)C(=O)O` [SU15210-0151-01, (S)-2-(3,5-dichloro-[1,1′-biphenyl]-4-carboxamido)-3-(2-(3-(5,6,7,8-tetrahydro-1,8-naphthyridin-2-yl)propanamido)acetamido)propanoic acid], the negative logarithm of the IC50 (pIC50) was 6.00 to 7.00.

For `CNc1cccc(CCC(=O)NCC(=O)NC[C@H](NC(=O)c2c(Cl)cc(-c3ccccc3)cc2Cl)C(=O)O)n1` [SU15210-0152-01, (S)-2-(3,5-dichlorobiphenyl-4-ylcarboxamido)-3-(2-(3-(6-(methylamino)pyridin-2-yl)propanamido)acetamido)propanoic acid], the pIC50 is 5.00 to 6.00.

In the case of `C/N=C(\NC)Nc1cccc(C(=O)NCC(=O)NC[C@H](NC(=O)c2c(Cl)cc(-c3ccccc3)cc2Cl)C(=O)O)c1` [SU15210-0193-01, (S,E)-2-(3,5-dichlorobiphenyl-4-ylcarboxamido)-3-(2-(3-(2,3-dimethylguanidino)benzamido)acetamido)propanoic acid], the negative-log IC50 (pIC50) was 6.00 to 7.00.

`O=C(CNC(=O)c1cccc(NC2=NCC(F)(F)CN2)c1)NC[C@H](NC(=O)c1c(Cl)cc(-c2ccccc2)cc1Cl)C(=O)O` [SU15210-0200, (S)-2-(3,5-dichlorobiphenyl-4-ylcarboxamido)-3-(2-(3-(5,5-difluoro-1,4,5,6-tetrahydropyrimidin-2-ylamino)benzamido)acetamido)propanoic acid]: the negative logarithm of the IC50 (pIC50) was > 7.00.

With `CN(CC(=O)NC[C@H](NC(=O)c1c(Cl)cc(-c2ccccc2)cc1Cl)C(=O)O)C(=O)c1cccc(NC(=N)N)c1` [SU15210-0202-01, (S)-2-(3,5-dichlorobiphenyl-4-ylcarboxamido)-3-(2-(3 guanidino-N-methylbenzamido)acetamido)propanoic acid], the pIC50 was 6.00 to 7.00.

For `COC(=O)[C@H](CNC(=O)CNC(=O)c1cc(C#N)cc(N/C(=N/C(=O)OC(C)(C)C)NC(=O)OC(C)(C)C)c1)NC(=O)c1c(Cl)cc(-c2ccccc2)cc1Cl` [SU15210-0206-01], the pIC50 was > 7.00.

Consider `O=C(CNC(=O)c1cccc(NC2=NCCCS2)c1)NC[C@H](NC(=O)c1c(Cl)cc(-c2ccccc2)cc1Cl)C(=O)O` [SU15210-0230-01], for which the pIC50 was > 7.00.

Consider `O=C(CNC(=O)c1cccc(NC2=NCC(F)CN2)c1)NC[C@H](NC(=O)c1c(Cl)cc(-c2ccc3cn[nH]c3c2)cc1Cl)C(=O)O` (stereo partly drawn) [SU15210-0241-01, (2S)-2-(2,6-dichloro-4-(1H-indazol-6-yl)benzamido)-3-(2-(3-(5-fluoro-1,4,5,6-tetrahydropyrimidin-2-ylamino)benzamido)acetamido)propanoic acid], for which the pIC50 was > 7.00.

With `O=C(CNC(=O)c1cccc(NC2=NCC(F)CN2)c1)NC[C@H](NC(=O)c1c(Cl)cc(N2CCOCC2)cc1Cl)C(=O)O` (stereo partly drawn) [SU15210-0248-01, (2 S)-2-(2,6-dichloro-4-morpholinobenzamido)-3-(2-(3-(5-fluoro-1,4,5,6-tetrahydropyrimidin-2-ylamino)benzamido)acetamido)propanoic acid], the negative logarithm of the IC50 (pIC50) is > 7.00.

As for `O=C(CNC(=O)c1cccc(NC2=NCC(F)CN2)c1)NC[C@H](NC(=O)c1c(Cl)cc(N2CCS(=O)(=O)CC2)cc1Cl)C(=O)O` (stereo partly drawn) [SU15210-0253-01], the negative logarithm of the IC50 (pIC50) was > 7.00.

Turning to `C[C@@H](NC(=O)c1cccc(NC2=NCC(F)CN2)c1)C(=O)NC[C@H](NC(=O)c1c(Cl)cc(-c2ccccc2)cc1Cl)C(=O)O` (stereo partly drawn) [SU15210-0254, (2S)-2-[(2,6-dichloro-4-phenyl-benzoyl)amino]-3-[[(2R)-2-[[3-[(5-fluoro-1,4,5,6-tetrahydropyrimidin-2-yl)amino]benzoyl]amino]propanoyl]amino]propanoic acid], the negative-log IC50 (pIC50) was 6.00 to 7.00.

Regarding `O=C(CNC(=O)c1cccc(NC2=NCC(F)(F)CN2)c1)NC[C@H](NC(=O)c1c(Cl)cc(N2CCOCC2)cc1Cl)C(=O)O` [SU15210-0271-01, (S)-2-(2,6-dichloro-4-morpholinobenzamido)-3-(2-(3-(5,5-difluoro-1,4,5,6-tetrahydropyrimidin-2-ylamino)benzamido)acetamido)propanoic acid], the negative logarithm of the IC50 (pIC50) is > 7.00.

`O=C(CNC(=O)c1cccc(NC2=NCC(F)(F)CN2)c1)NC[C@H](NC(=O)c1c(Cl)cc(-c2ccc3cn[nH]c3c2)cc1Cl)C(=O)O` [SU15210-0272-01, (S)-2-(2,6-dichloro-4-(1H-indazol-6-yl)benzamido)-3-(2-(3-(5,5-difluoro-1,4,5,6-tetrahydropyrimidin-2-ylamino)benzamido)acetamido)propanoic acid]: the negative-log IC50 (pIC50) is > 7.00.

The assay is the same for the next values; noted with them: cell adhesion assay, SW480 cells, fibronectin-coated plates; Table 1.
`N=C(N)Nc1cccc(C(=O)NCC(=O)NC[C@H](NC(=O)c2c(Cl)cccc2Cl)C(=O)O)c1`: the pIC50 was > 7.00.

With `N=C(N)Nc1cccc(C(=O)NCC(=O)NC[C@H](NC(=O)c2c(Cl)cc(N3CCOCC3)cc2Cl)C(=O)O)c1`, the pIC50 is > 7.00.

Consider `O=C(CNC(=O)c1cccc(NC2=NCCCN2)c1)NC[C@H](NC(=O)c1c(Cl)cccc1Cl)C(=O)O`, for which the negative-log IC50 (pIC50) was > 7.00.

In the case of `N=C(N)Nc1cccc(C(=O)NCC(=O)NC[C@H](NC(=O)c2c(Cl)cc(-c3ccccc3)cc2Cl)C(=O)O)c1`, the pIC50 is > 7.00.

As to `Cc1cccc(Cl)c1C(=O)N[C@@H](CNC(=O)CNC(=O)c1cccc(NC(=N)N)c1)C(=O)O`, the pIC50 was > 6.00.

Turning to `N=C(N)Nc1ccc2c(c1)C(NCC(=O)NC[C@H](NC(=O)c1c(Cl)cccc1Cl)C(=O)O)CCO2` (stereo partly drawn), the pIC50 was > 6.00.

With `N=C(N)Nc1ccc2ncn(CCC(=O)NC[C@H](NC(=O)c3c(Cl)cccc3Cl)C(=O)O)c2c1`, the negative-log IC50 (pIC50) is > 5.00.

`Cc1ccnc(Nc2cccc(C(=O)NCC(=O)NC[C@H](NC(=O)c3c(Cl)cccc3Cl)C(=O)O)c2)c1`: the pIC50 was > 5.00.

`N#C/N=C(\N)Nc1cccc(C(=O)NCC(=O)NC[C@@H](NC(=O)c2c(Cl)cccc2Cl)C(=O)O)c1`: the negative logarithm of the IC50 (pIC50) is > 5.00.

For `COc1ccc(Nc2cccc(C(=O)NCC(=O)NC[C@H](NC(=O)c3c(Cl)cccc3Cl)C(=O)O)c2)nc1`, the negative logarithm of the IC50 (pIC50) was > 4.30.

Consider `N#C/N=C(\N)Nc1cccc(C(=O)NCC(=O)NC[C@H](NC(=O)c2c(Cl)cccc2Cl)C(=O)O)c1` [drawing 107], for which the pIC50 was > 7.00.

`N#C/N=C(\N)Nc1cccc(C(=O)NCC(=O)NC[C@H](NC(=O)c2c(Cl)cccc2Cl)C(=O)O)c1` [drawing 110]: the pIC50 was > 6.00.
